# Results published in patent publication US20230065745A1, “PIPERIDINE-2,6-DIONE DERIVATIVES WHICH BIND TO CEREBLON, AND METHODS OF USE THEREOF” (Captor Therapeutics S.A., priority 2019, published 2023).
# Experiments:
# [1] = biological target: CRBN-DDB1 protein complex (Homo sapiens, UniProt Q96SW2); assay: Fluorescence Polarization (FP) assay, displacement of Cy5-labelled thalidomide; conditions: 25 nM CRBN-DDB1, 5 nM Cy5-labelled thalidomide, read-out: CRBN binding Ki
# Method: CRBN-DDB1 protein complex was mixed with Cy5-labelled thalidomide and a compound to be tested (the “test compound”). […] The test solution was added to a 384-well assay plate.
# The plate was spun-down (1 min, 1000 rpm, 22° C.) and then shaken using a VibroTurbulator for 10 min at room temperature (20-25° C.), with the frequency set to level 3. The assay plate with protein and the tracer was incubated for 60 min at room temperature (20-25° C.) prior to read-out with a plate reader.
# The FP experiment was carried out with various concentrations of the test compounds in order to measure Ki values.
# IKZF1 = IKZF1 degradation assay, H929 cell line (Western blot densitometry); format: cell-based; conditions: 20 μM
# Method: Cells were seeded on 6- or 12-well plates, and the compounds to be tested were added at the desired concentration range. […] After 6 or 24 h incubation (3TC, 5% CO2), cells were harvested, washed and cell lysates were prepared using RIPA lysis buffer. The amount of protein was determined via BCA assay, and the appropriate quantity was then loaded on the precast gel for the protein separation. After primary and secondary Ab staining, the membranes were washed and signals developed. The densitometry analysis was implemented to obtain the numeric values used later in the protein level evaluation process. […] The treatment with all compounds was carried out for 24 h.
# Chain of CRBN-DDB1 protein complex (Q96SW2 whole entry): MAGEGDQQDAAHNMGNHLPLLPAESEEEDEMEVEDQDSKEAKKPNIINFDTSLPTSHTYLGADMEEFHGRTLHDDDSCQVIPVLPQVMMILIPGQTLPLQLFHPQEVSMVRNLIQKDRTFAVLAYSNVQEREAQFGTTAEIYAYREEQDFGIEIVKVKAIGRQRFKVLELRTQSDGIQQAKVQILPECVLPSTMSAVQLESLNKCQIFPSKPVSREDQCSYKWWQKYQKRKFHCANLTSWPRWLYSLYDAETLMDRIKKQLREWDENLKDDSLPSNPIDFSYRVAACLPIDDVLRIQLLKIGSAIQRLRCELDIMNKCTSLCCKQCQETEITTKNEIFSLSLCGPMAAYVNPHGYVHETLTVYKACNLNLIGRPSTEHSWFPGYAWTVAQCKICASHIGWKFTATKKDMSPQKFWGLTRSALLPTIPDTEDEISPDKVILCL
# Chain of CRBN-DDB1 protein complex (Q16531 whole entry partner): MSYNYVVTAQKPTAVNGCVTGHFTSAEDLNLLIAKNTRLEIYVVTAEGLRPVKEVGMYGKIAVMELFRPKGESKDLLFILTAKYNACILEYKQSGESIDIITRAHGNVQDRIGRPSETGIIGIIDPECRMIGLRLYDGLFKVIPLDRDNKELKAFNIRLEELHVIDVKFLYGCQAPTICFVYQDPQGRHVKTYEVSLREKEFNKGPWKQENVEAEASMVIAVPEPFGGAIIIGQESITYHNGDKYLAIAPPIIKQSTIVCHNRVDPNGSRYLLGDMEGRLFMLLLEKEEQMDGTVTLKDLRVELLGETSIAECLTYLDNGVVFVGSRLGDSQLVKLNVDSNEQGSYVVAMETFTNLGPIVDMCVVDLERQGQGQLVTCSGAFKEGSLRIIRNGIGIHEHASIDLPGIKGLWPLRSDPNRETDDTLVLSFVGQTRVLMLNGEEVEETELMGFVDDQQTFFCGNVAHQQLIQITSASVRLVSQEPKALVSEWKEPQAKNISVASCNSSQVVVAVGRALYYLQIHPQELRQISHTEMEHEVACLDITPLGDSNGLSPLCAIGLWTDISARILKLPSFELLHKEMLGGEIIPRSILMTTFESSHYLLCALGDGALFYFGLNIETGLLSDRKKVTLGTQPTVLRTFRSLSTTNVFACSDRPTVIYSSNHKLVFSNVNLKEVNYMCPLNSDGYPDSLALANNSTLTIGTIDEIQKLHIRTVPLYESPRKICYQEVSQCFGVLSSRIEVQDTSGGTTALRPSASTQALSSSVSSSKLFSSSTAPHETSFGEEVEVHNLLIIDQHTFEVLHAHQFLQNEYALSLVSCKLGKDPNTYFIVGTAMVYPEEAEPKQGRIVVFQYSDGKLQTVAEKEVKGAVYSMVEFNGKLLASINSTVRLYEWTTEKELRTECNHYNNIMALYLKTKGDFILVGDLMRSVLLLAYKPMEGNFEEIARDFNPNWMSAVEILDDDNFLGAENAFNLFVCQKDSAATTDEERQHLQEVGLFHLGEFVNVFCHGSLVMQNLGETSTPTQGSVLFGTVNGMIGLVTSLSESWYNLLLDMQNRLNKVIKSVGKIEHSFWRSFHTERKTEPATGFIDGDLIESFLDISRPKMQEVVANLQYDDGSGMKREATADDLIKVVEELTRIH
SMILES,Ki [1] [µM],"% of IKZF1 protein reduction, IKZF 1 (24 H, 20 μM) (IKZF1)"
"CCCCC(=O)Nc1sc(Cl)cc1C(=O)NC1CCC(=O)NC1=O (centres unmarked) [Compound 3, 5-chloro-N-(2,6-dioxopiperidin-3-yl)-2-pentanamidothiophene-3-carboxamide]",< 5,≤25% (≤25% for 0-25% of IKZF1 protein reduction)
"CC(=O)Nc1sccc1C(=O)N(C)C1CCC(=O)NC1=O (centres unmarked) [Compound 5, N-(2,6-dioxopiperidin-3-yl)-2-acetamido-N-methylthiophene-3-carboxamide]",10 to 50,≤25% (≤25% for 0-25% of IKZF1 protein reduction)
"O=C1CCC(NC(=O)c2cc(Cl)sc2NC(=O)C2CC2)C(=O)N1 (centres unmarked) [Compound 6, 5-chloro-2-cyclopropaneamido-N-(2,6-dioxopiperidin-3-yl)thiophene-3-carboxamide]",< 5,≤25% (≤25% for 0-25% of IKZF1 protein reduction)
"CC(=O)Nc1ccsc1C(=O)NC1CCC(=O)NC1=O (centres unmarked) [Compound 7, N-(2,6-dioxopiperidin-3-yl)-3-acetamidothiophene-2-carboxamide]",5 to 10,≤25% (≤25% for 0-25% of IKZF1 protein reduction)
"COc1csc(NC(C)=O)c1C(=O)NC1CCC(=O)NC1=O (centres unmarked) [Compound 8, N-(2,6-dioxopiperidin-3-yl)-2-acetamido-4-methoxythiophene-3-carboxamide]",5 to 10,≤25% (≤25% for 0-25% of IKZF1 protein reduction)
"CC(=O)Nc1sc(C#N)cc1C(=O)NC1CCC(=O)NC1=O (centres unmarked) [Compound 9, 5-cyano-N-(2,6-dioxopiperidin-3-yl)-2-acetamidothiophene-3-carboxamide]",< 5,≤25% (≤25% for 0-25% of IKZF1 protein reduction)
"CC(=O)Nc1sc(Cl)cc1C(=O)NC1CCC(=O)NC1=O (centres unmarked) [Compound 12, 5-Chloro-N-(2,6-dioxopiperidin-3-yl)-2-acetamidothiophene-3-carboxamide]",5 to 10,≤25% (≤25% for 0-25% of IKZF1 protein reduction)
"CS(=O)(=O)Nc1sccc1C(=O)NC1CCC(=O)NC1=O (centres unmarked) [Compound 13, N-(2,6-dioxopiperidin-3-yl)-2-methanesulfonamidothiophene-3-carboxamide]",5 to 10,≤25% (≤25% for 0-25% of IKZF1 protein reduction)
"CNC(=O)c1cc(C(=O)NC2CCC(=O)NC2=O)c(NC(C)=O)s1 (centres unmarked) [Compound 14, 5-acetamido-N^4-(2,6-dioxopiperidin-3-yl)-5-acetamido-N^2-methylthiophene-2,4-dicarboxamide]",5 to 10,≤25% (≤25% for 0-25% of IKZF1 protein reduction)
"CNc1sc(Cl)cc1C(=O)NC1CCC(=O)NC1=O (centres unmarked) [Compound 16, 5-chloro-N-(2,6-dioxopiperidin-3-yl)-2-(methylamino)thiophene-3-carboxamide]",< 5,≤25% (≤25% for 0-25% of IKZF1 protein reduction)
"C[C@H](O)C(=O)Nc1sc(Cl)cc1C(=O)NC1CCC(=O)NC1=O (stereo partly drawn) [Compound 17, 5-chloro-N-(2,6-dioxopiperidin-3-yl)-2-[(2S)-2-hydroxypropanamido]thiophene-3-carboxamide]",10 to 50,≤25% (≤25% for 0-25% of IKZF1 protein reduction)
"CC(=O)Nc1cc(Cl)sc1C(=O)NC1CCC(=O)NC1=O (centres unmarked) [Compound 18, 5-chloro-N-(2,6-dioxopiperidin-3-yl)-3-acetamidothiophene-2-carboxamide]",10 to 50,≤25% (≤25% for 0-25% of IKZF1 protein reduction)
"CC(=O)Nc1sc(C2CC2)c(Cl)c1C(=O)NC1CCC(=O)NC1=O (centres unmarked) [Compound 19, 4-chloro-5-cyclopropyl-N-(2,6-dioxopiperidin-3-yl)-2-acetamidothiophene-3-carboxamide]",5 to 10,≤25% (≤25% for 0-25% of IKZF1 protein reduction)
